In patent US8329063B2, “Low-emission formaldehyde donor preparations” (Air Liquide Sante (International), priority 2004, dated 2012):

Columns and labels:
[1] = Determining formaldehyde in the gas phase above preservatives (Dräger tubes 0.2/a); format: physicochemical
Method: 1. Method of Determining Formaldehyde in the Gas Phase
(§1) • The determination of the formaldehyde content in the gas phase above various preservatives was carried out using Dräger tubes 0.2/a (No. 6733081) in accordance with the instructions for use from Dräger Safety AG & Co. KGaA (9th Edition, July 2001). For this purpose, about 100 g of the sample to be investigated were introduced into a 250 ml wide-necked beaker with a screw lid and left to stand, in the closed state, for at least 3 hours at room temperature. The measurement was read off after 2 strokes on the scale 0.5 to 5 ppm, n=10. […] 2. Method of Determining Ammonia (Amine) in the Gas Phase • The determination of the amine content in the gas phase above various preservatives was carried out using Dräger tubes 2/a (No. 6733231) in accordance with the instructions for use from Dräger Safety AG & Co. KGaA (9th Edition, July 2001). For this purpose, about 100 g of the sample to be investigated were introduced into a 250 ml wide-necked beaker with a screw lid and left to stand, in the closed state, for at least 3 hours at room temperature. The measurement was read off after one stroke on the scale. […] 3. Formaldehyde and Amine Emissions of Preservatives • In the gas phase of preservatives formulated as described below, using the methods described under 1. and 2., the following formaldehyde and amine concentrations were measured in the gas phase (Table 1): • Preservatives A, B and C were prepared by adding urea and monoethylene glycol dissolved in water to Grotan® OX and stripping off the water on a rotary evaporator (2 hours at 60° C. and 30 mbar). Preservative D (comparative) was prepared by adding monoethylene glycol to Grotan® OX.

[2] = Determining ammonia (amine) in the gas phase above preservatives (Dräger tubes 2/a); format: physicochemical; settings: amine as NH3
Method: as §1

Question: Which results are given for `CC1CN(CN2COC(C)C2)CO1` (stereo not drawn) [Example E, N,N′-methylenebis(5-methyloxazolidine)]?
Answer: ppm of HCHO ([1]; After 2 weeks (gas phase)): 3-5 ppm; ppm of HCHO ([1]; After 11 weeks (gas phase)): 0.7 ppm; ppm of HCHO ([1]; After 4 days (gas phase)): 3 ppm; ppm of amine ([2]; After 2 weeks (gas phase)): 15 ppm; ppm of amine ([2]; After 11 weeks (gas phase)): 13 ppm; ppm of amine ([2]; After 4 days (gas phase)): 10 ppm
